Test results as given in patent US20100204216A1, “PHARMACEUTICAL COMPOSITION FOR […]-beta PROTEIN ACCUMULATION” (SUMMITOMO CHEMICAL COMPANY LIMITED, priority 2007, published 2010).

Test system: CHP212 cells
Experiment: Measurement of fluctuation in the amount of Aβ accumulation in cultured nerve cells
Assay type: cell-based
Details: cultured nerve cells (human neuroblastoma CHP212); Aβ in the medium by ELISA (Human/Rat Amyloid β1-42 kit) 48 hours after addition of test substance; 10^-12 M to 10^-6 M; versus DMSO control (100%), FIG. 1
Source text: FIG. 1 is a diagram showing results of measuring fluctuation caused by a test substance of the formula (a) in the amount of Aβ accumulation in cultured nerve cells (CHP212 cells).
In the diagram, each column represents, starting from the left, a result of measurement obtained in a well to which the test substance has been added so that its final concentration can be 10^−12M (10^−12 M), in a well to which the test substance has been added so that its final concentration can be 10^−11M (10^−11M), in a well to which the test substance has been added so that its final concentration can be 10^−10M (10^−10M), in a well to which the test substance A has been added so that its final concentration can be 10^−9M (10^−9M), in a well to which the test substance has been added so that its final concentration can be 10^−8M (10^−8M), in a well to which the test substance has been added so that its final concentration can be 10^−7M (10^−7M), and in a well to which the test substance has been added so that its final concentration can be 10^−6M (10^−6 M). The results are shown in % by setting a result obtained in a control well to which only a solvent (DMSO) has been added as 100%. […]

SMILES: O=c1cc(C(F)(F)F)c2cc(N(CC(F)(F)F)CC(F)(F)F)ccc2[nH]1 [formula (a)]
- amount of Aβ accumulation: markedly decreased
